From ChEMBL document CHEMBL4229570, “Pyrrolo[2,1-c][1,4] benzodiazepine-3,11-diones protect SHSY-5Y cells from Cd-induced apoptosis involving suppression of endoplasmic reticulum stress” (Bioorg Med Chem, 2018)
Activity calls are given as the source filed them. No cut-off for these calls is given here.

Columns and labels:
[1] = system: SH-SY5Y; test: Neuroprotective activity against CdCl2-induced toxicity in human SH-SY5Y cells assessed as cell viability at 25 uM preincubated for 2 hrs followed by CdCl2 challenge and measured after 24 hrs by CCK8 assay (reference value: 46.2 +/- 1.7%); type: functional; details: read-out: Activity
[2] = system: SH-SY5Y; test: Induction of apoptosis in human SH-SY5Y cells at 25 uM after 24 hrs by annexin V/propidium iodide staining-based flow cytometric analysis relative to control; type: cell-based
[3] = system: SH-SY5Y; test: Neuroprotective activity against CdCl2-induced apoptosis in human SH-SY5Y cells assessed as apoptosis rate at 25 uM preincubated for 2 hrs followed by CdCl2 challenge and measured after 24 hrs by annexin V/propidium iodide staining-based flow cytometric analysis (reference value: 73.2%); type: functional
[4] = system: SH-SY5Y; test: Neuroprotective activity against CdCl2-induced endoplasmic reticulum stress-mediated apoptosis in human SH-SY5Y cells assessed as downregulation of GRP78 protein expression at 25 uM preincubated for 2 hrs followed by CdCl2 challenge and measured after 24 hrs by Western blot analysis; type: functional, cell-based
[5] = system: SH-SY5Y; test: Neuroprotective activity against CdCl2-induced endoplasmic reticulum stress-mediated apoptosis in human SH-SY5Y cells assessed as downregulation of CHOP protein expression at 25 uM preincubated for 2 hrs followed by CdCl2 challenge and measured after 24 hrs by Western blot analysis; type: functional, cell-based
[6] = system: SH-SY5Y; test: Neuroprotective activity against CdCl2-induced endoplasmic reticulum stress-mediated apoptosis in human SH-SY5Y cells assessed as downregulation of cleaved caspase-3 protein expression at 25 uM preincubated for 2 hrs followed by CdCl2 challenge and measured after 24 hrs by Western blot analysis; type: functional, cell-based
[7] = system: SH-SY5Y; test: Neuroprotective activity against CdCl2-induced endoplasmic reticulum stress-mediated apoptosis in human SH-SY5Y cells assessed as downregulation of cleaved caspase-12 protein expression at 25 uM preincubated for 2 hrs followed by CdCl2 challenge and measured after 24 hrs by Western blot analysis; type: functional, cell-based

## O=C1Nc2ccc(Br)cc2CN2C(=O)CC[C@H]12
[1]
  viability at 25 µM: 60.4%

## Cc1ccccc1-c1ccc2c(c1)CN1C(=O)CC[C@H]1C(=O)N2
[1]
  viability at 25 µM: 39.8%

## COc1cc2c(cc1O)CN1C(=O)CC[C@H]1C(=O)N2
[1]
  viability at 25 µM: 55.7%

## O=C1[C@@H]2CCC(=O)N2Cc2cc(Br)ccc2N1CCCCN1CCN(c2ccccn2)CC1
[1]
  viability at 25 µM: 62.4%

## Cc1ccccc1-c1ccc2c(c1)CN1C(=O)CC[C@@H]1C(=O)N2
[1]
  viability at 25 µM: 42.3%

## O=C1[C@@H]2CCC(=O)N2Cc2ccccc2N1CCCN1CCN(c2ccccn2)CC1
[1]
  viability at 25 µM: 56.7%

## COc1cc2c(cc1OCc1ccccc1)CN1C(=O)CC[C@H]1C(=O)N2CCCCN1CCN(c2ccccn2)CC1
[1]
  viability at 25 µM: 68.6%
[2]
  Activity: 4.2 to 5%
[3]
  Activity: 18.7%
[4]
  Activity: Active
[5]
  Activity: Active
[6]
  Activity: Active
[7]
  Activity: Active

## O=C1Nc2ccc(Br)cc2CN2C(=O)CC[C@@H]12
[1]
  viability at 25 µM: 66.1%

## O=C1Nc2ccc(Cl)cc2CN2C(=O)CC[C@@H]12
[1]
  viability at 25 µM: 61.4%

## Cc1ccc(-c2ccc3c(c2)CN2C(=O)CC[C@H]2C(=O)N3)cc1
[1]
  viability at 25 µM: 33.9%

## O=C1[C@@H]2CCC(=O)N2Cc2ccccc2N1CCCN1CCN(c2ncccn2)CC1
[1]
  viability at 25 µM: 51.3%

## COc1cc2c(cc1OCc1ccccc1)CN1C(=O)CC[C@H]1C(=O)N2CCCCN1CCN(c2ncccn2)CC1
[1]
  viability at 25 µM: 62.2%

## COc1cc2c(cc1OCc1ccccc1)CN1C(=O)CC[C@@H]1C(=O)N2
[1]
  viability at 25 µM: 60.4%

## O=C1[C@@H]2CCC(=O)N2Cc2ccccc2N1CCCCCN1CCN(c2ccccn2)CC1
[1]
  viability at 25 µM: 59.2%

## O=C1Nc2ccccc2CN2C(=O)CC[C@H]12
[1]
  viability at 25 µM: 48.4%

## O=C1Nc2ccc(Cl)cc2CN2C(=O)CC[C@H]12
[1]
  viability at 25 µM: 56.2%

## O=C1Nc2ccccc2CN2C(=O)CC[C@@H]12
[1]
  viability at 25 µM: 52.2%

## O=C1[C@@H]2CCC(=O)N2Cc2ccccc2N1CCCCCN1CCN(c2ncccn2)CC1
[1]
  viability at 25 µM: 51.4%

## O=C1[C@@H]2CCC(=O)N2Cc2ccccc2N1CCCCN1CCN(c2ccccn2)CC1
[1]
  viability at 25 µM: 66.2%

## O=C1[C@@H]2CCC(=O)N2Cc2cc(Br)ccc2N1CCCCN1CCN(c2ncccn2)CC1
[1]
  viability at 25 µM: 63.1%

## COc1cc2c(cc1OCc1ccccc1)CN1C(=O)CC[C@H]1C(=O)N2
[1]
  viability at 25 µM: 66.2%

## O=C1Nc2cc3c(cc2CN2C(=O)CC[C@@H]12)OCO3
[1]
  viability at 25 µM: 59.2%

## Cc1ccc(-c2ccc3c(c2)CN2C(=O)CC[C@@H]2C(=O)N3)cc1
[1]
  viability at 25 µM: 36.2%

## COc1cc2c(cc1O)CN1C(=O)CC[C@@H]1C(=O)N2
[1]
  viability at 25 µM: 56.8%

## O=C1[C@@H]2CCC(=O)N2Cc2ccccc2N1CCCCN1CCN(c2ncccn2)CC1
[1]
  viability at 25 µM: 59.2%

## O=C1Nc2cc3c(cc2CN2C(=O)CC[C@H]12)OCO3
[1]
  viability at 25 µM: 56.6%
